Results: patent publication US10364263B2, “Cyclic phosphates and cyclic phosphoramidates for the treatment of neurologic disorders” (Retrophin, Inc., priority 2015, dated 2019)
Like-named read-outs stand apart in the source and are kept apart here.

How the values were obtained:
[1] = test system: PANK2 silenced human neuroblastoma IMR32 cells (PANK2−/−); test: Coenzyme A assay in PANK2 silenced cells (LC-MS quantification of free CoA); format: cell-based; details: compound added twice (24 h + 24 h), relative to 0.1% DMSO controls
How it was run: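 PANK2 shRNA-silenced IMR32 neuroblastoma cells were treated with compound (0.1% DMSO) for 24 h, then re-dosed with fresh compound for a further 24 h at 37 °C. TFA extracts of 1×10^6 cells were assayed for free CoA by LC-MS/MS (MRM 768.1→261.6/136.1). Results are given as fold change versus DMSO controls.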

[2] = Stability in human plasma; format: in vitro ADME; details: human, plasma, 37° C.
How it was run: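 Test compound at 3 μM (0.1% DMSO) was incubated in mouse or human plasma at 37 °C and sampled in duplicate at 0, 10, 20, 30, 40 and 60 min. Reactions were stopped with acetonitrile/formic acid containing internal standard. Remaining parent was measured by UPLC-MS/MS without a calibration curve.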

[3] = Stability in mouse hepatocytes; format: in vitro ADME; details: t1/2, Mouse Hepatocytes
[4] = Stability in human hepatocytes; format: in vitro ADME; details: t1/2, Human Hepatocytes
[5] = Diastereoisomer A (upfield shift in 31P NMR), read-out: t1/2, Human Plasma, Diastereoisomer A (converted)
[6] = Diastereoisomer B, read-out: t1/2, Human Plasma, Diastereoisomer B (converted)

SMILES	PANK2−/− CoA (Fold Increase): fold increase in Coenzyme A (CoA) levels relative to controls [1] [Fold Increase]	half-life at 3 µM [2, 5] [min]	half-life at 3 µM [2, 6] [min]	half-life at 5 µM ([3]; Diastereoisomer A) [min]	half-life at 5 µM ([3]; Diastereoisomer B) [min]	half-life at 5 µM ([4]; Diastereoisomer A) [min]	half-life at 5 µM ([4]; Diastereoisomer B) [min]
COC(=O)[C@H](C)NP1(=O)OCC(C)(C)[C@H](C(=O)NCCC(=O)OCc2ccncc2)O1 (stereo partly drawn) [compound 20, (2S)-methyl 2-(((4R)-5,5-dimethyl-2-oxido-4-((3-oxo-3-(pyridin-4-ylmethoxy)propyl)carbamoyl)-1,3,2-dioxaphosphinan-2-yl)amino)propanoate]	0.9	44.4	> 60	< 15	< 15	142	65.4
COC(=O)CCNC(=O)[C@@H]1OP(=O)(OCOC(=O)c2ccccc2)OCC1(C)C (stereo partly drawn) [Compound No. 64, (((4R)-4-((3-methoxy-3-oxopropyl)carbamoyl)-5,5-dimethyl-2-oxido-1,3,2-dioxaphosphinan-2-yl)oxy)methyl benzoate]	278.1	< 9.6	< 9.6	< 15	< 15	< 15	< 15
